In ChEMBL document CHEMBL3045327, “Synthesis, cytotoxic evaluation, and in silico studies of substituted N-alkylbromo-benzothiazoles” (Med Chem Res, 2013):

What was measured:
Type in all cases: functional, cell-based
THP-1 = test: Cytotoxicity against Homo sapiens (human) THP1 cells after 48 hr by SRB assay; details: for IC50: THP-1, 48 h
A549 = test: Cytotoxicity against Homo sapiens (human) A549 cells after 48 hr by SRB assay; details: for IC50: A549, 48 h
PC-3 = test: Cytotoxicity against Homo sapiens (human) PC3 cells after 48 hr by SRB assay; details: for IC50: PC-3, 48 h
Caco-2 = test: Cytotoxicity against Homo sapiens (human) Caco2 cells after 48 hr by SRB assay; details: Caco-2, 48 h

Structure (SMILES) | Activity (THP-1) | IC50 (THP-1) | Activity (A549) | IC50 (A549) | Activity (PC-3) | IC50 (PC-3) | IC50 (Caco-2)
Clc1ccc2nc(NCCBr)sc2c1 | Dose-dependent effect | 97.8 µM | Dose-dependent effect | > 100 µM | Dose-dependent effect | 99 µM | > 100 µM
Fc1ccc2nc(NCCCBr)sc2c1 | Dose-dependent effect | 0.9 µM | Dose-dependent effect | > 100 µM | Dose-dependent effect | 2.5 µM | 93.7 µM
Cc1ccc2nc(NCCCBr)sc2c1 | Dose-dependent effect | 30.3 µM | Dose-dependent effect | > 100 µM | Dose-dependent effect | 53.3 µM | 81.6 µM
Fc1ccc2nc(NCCBr)sc2c1 | Dose-dependent effect | 1 µM | Dose-dependent effect | 67.6 µM | Dose-dependent effect | 9.9 µM | 16.8 µM
Clc1ccc2nc(NCCCBr)sc2c1 | Dose-dependent effect | 60 µM | Dose-dependent effect | > 100 µM | Dose-dependent effect | 62.8 µM | 33 µM
O=c1[nH]cc(F)c(=O)[nH]1 [FLUOROURACIL] | Dose-dependent effect |  | Dose-dependent effect |  | Dose-dependent effect |  | 21 µM
Clc1cccc2sc(NCCCBr)nc12 | Dose-dependent effect | 1.72 µM | Dose-dependent effect | > 100 µM | Dose-dependent effect | 3.1 µM | > 100 µM
CC(=O)O[C@H]1C(=O)[C@@]2(C)[C@H]([C@H](OC(=O)c3ccccc3)[C@]3(O)C[C@H](OC(=O)[C@H](O)[C@@H](NC(=O)c4ccccc4)c4ccccc4)C(C)=C1C3(C)C)[C@]1(OC(C)=O)CO[C@@H]1C[C@@H]2O | Dose-dependent effect |  | Dose-dependent effect |  | Dose-dependent effect |  | 
Clc1cc2nc(NCCCBr)sc2cc1Cl | Dose-dependent effect | 7 µM | Dose-dependent effect | > 100 µM | Dose-dependent effect | 28 µM | 63 µM
Cc1ccc2nc(NCCBr)sc2c1 | Dose-dependent effect | 39.9 µM | Dose-dependent effect | > 100 µM | Dose-dependent effect | 40.9 µM | 67.7 µM
Clc1cc2nc(NCCBr)sc2cc1Cl | Dose-dependent effect | 8.46 µM | Dose-dependent effect | 85.5 µM | Dose-dependent effect | 24 µM | 8.4 µM
Clc1cccc2sc(NCCBr)nc12 | Dose-dependent effect | 110 µM | Dose-dependent effect | > 100 µM | Dose-dependent effect | 110 µM | 26.9 µM
COc1ccc2nc(NCCBr)sc2c1 | Dose-dependent effect | 110 µM | Dose-dependent effect | > 100 µM | Dose-dependent effect | 100 µM | 47.9 µM
CO[C@@]12[C@H](COC(N)=O)C3=C(C(=O)C(C)=C(N)C3=O)N1C[C@@H]1N[C@@H]12 [MITOMYCIN] | Dose-dependent effect | 1.5 µM | Dose-dependent effect | 0.4 µM | Dose-dependent effect |  | 
COc1ccc2nc(NCCCBr)sc2c1 | Dose-dependent effect | 3 µM | Dose-dependent effect | 89.9 µM | Dose-dependent effect | 0.6 µM | 9.9 µM
